Source: patent US8486931B2, “Substituted oxindole compounds” (Abbott GmbH & Co. KG, priority 2007, dated 2013)
Structures can show the parent of a compound that is named as a salt.

target: T1, human vasopressin V1b receptor (Homo sapiens, UniProt P47901); test: Vasopressin V1b receptor binding assay; details: membranes from CHO-K1 cells with stably expressed human V1b receptors, 1.5 nM 3H-AVP displacement; with more than one stereogenic center: the diastereomer with stronger affinity
T1 construct: expressed in transfected cells; host or cells: CHO-K1 (cell line hV1b-3H2_CHO), membrane preparation
T1 sequence (P47901 1-424): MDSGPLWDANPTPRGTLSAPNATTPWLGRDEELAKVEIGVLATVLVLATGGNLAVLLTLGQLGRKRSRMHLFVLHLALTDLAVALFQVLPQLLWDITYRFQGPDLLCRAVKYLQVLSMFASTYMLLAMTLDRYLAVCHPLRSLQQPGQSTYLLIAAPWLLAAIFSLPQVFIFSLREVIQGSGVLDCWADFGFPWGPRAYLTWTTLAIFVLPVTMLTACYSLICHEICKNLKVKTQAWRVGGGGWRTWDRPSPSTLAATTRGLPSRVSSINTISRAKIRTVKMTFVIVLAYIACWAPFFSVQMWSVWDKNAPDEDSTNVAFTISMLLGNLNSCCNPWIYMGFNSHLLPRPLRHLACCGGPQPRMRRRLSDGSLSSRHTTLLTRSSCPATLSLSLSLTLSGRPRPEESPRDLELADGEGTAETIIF
Protocol: Such compounds can be investigated in suitable assays which establish the affinity to a receptor, with the affinity constant Ki represening a measure of the potency of the compounds and a smaller value representing a larger potency. The compounds of the invention were tested in the following receptor binding assay for their affinity for the V1 b receptor.
Vasopressin V1 b Receptor Binding Assay:
The test substances were dissolved in a concentration of 10^−2 M in DMSO (dimethyl sulfoxide) and further diluted to 5×10^−4 M to 5×10^−9 M in DMSO. This series of DMSO predilutions was diluted 1:10 with assay buffer. The substance concentration was again diluted 1:5 in the assay mixture (2% DMSO in the mixture).
The membrane pellet was again homogenized and centrifuged as described and then taken up in 50 mM Tris-HCl, pH 7.4, homogenized and stored in aliquots frozen in liquid nitrogen at −190° C.
The incubation buffer was: 50 mM Tris, 10 mM MgCl2, 0.1% BSA, pH 7.4.
The nonspecific binding was determined with 1 μM AVP (Bachem #H1780). All determinations were carried out as triplicate determinations. After incubation (60 minutes at room temperature), the free radioligand was removed by vacuum filtration (Skatron cell harvester 7000) through Whatman GF/B glass fiber filter mats, and the filters were transferred into scintillation vials. The liquid scintillation measurement took place in a Tricarb model 2000 or 2200CA instrument (Packard). Conversion of the measured cpm into dpm was carried out with the aid of a standard quench series.
The binding parameters were calculated by nonlinear regression in SAS.
The above assay was used to measure the affinities of the compounds of the invention for the human vasopressin V1 b receptor and to determine with affinity constants (Ki).

Row | Structure (SMILES) | Ki
1 | COc1ccc(OC)c(C2(N3CCN(c4ccncc4)CC3)C(=O)N(S(=O)(=O)c3cccc4c(C)ccnc34)c3ccc(C#N)cc32)c1 (racemic) [Example 50, (±)-5-Cyano-3-(2,5-dimethoxyphenyl)-1-(4-methylquinoline-8-sulfonyl)-3-(4-pyridin-4-yl-piperazin-1-yl)-2,3-dihydro-1H-indol-2-one] | 10 to 50 nM
2 | COc1ccc(C)cc1C1(N2CCN(c3ccncc3)CC2)C(=O)N(S(=O)(=O)c2cccc3cccnc23)c2ccc(C#N)cc21 (racemic) [Example 51, (±)-5-Cyano-3-(2-methoxy-5-methylphenyl)-3-(4-pyridin-4-ylpiperazin-1-yl)-1-quinoline-8-sulfonyl)-2,3-dihydro-1H-indol-2-one] | < 10 nM
3 | CCOc1ccc(OC)cc1C1(N2CCN(c3ccnc(C)c3)CC2)C(=O)N(S(=O)(=O)c2ccc(C)cn2)c2ccc(C#N)cc21 (racemic) [Example 52, (±)-5-Cyano-3-(2-ethoxy-5-methoxyphenyl)-1-(5-methylpyridine-2-sulfonyl)-3-[4-(2-methylpyridin-4-yl)piperazin-1-yl]-2,3-dihydro-1H-indol-2-one] | 10 to 50 nM
4 | COc1ccc(OC)c(C2(N3CCN(c4ccncc4)CC3)C(=O)N(S(=O)(=O)c3cccc4cccnc34)c3ccc(OC)cc32)c1 (racemic) [Example 59, (±)-3-(2,5-Dimethoxyphenyl)-5-methoxy-3-(4-pyridin-4-ylpiperazin-1-yl)-1-(quinoline-8-sulfonyl)-1,3-dihydroindol-2-one] | < 10 nM
5 | CCOc1ccc(OC)cc1C1(N2CCCN(c3ccnc(C)c3)CC2)C(=O)N(S(=O)(=O)c2ccc(OC)cn2)c2ccc(C#N)cc21 (racemic) [Example 65, (±)-5-Cyano-3-(2-ethoxy-5-methoxyphenyl)-1-(5-methoxypyridine-2-sulfonyl)-3-[4-(2-methylpyridin-4-yl)-[1,4]diazepan-1-yl]-2,3-dihydro-1H-indol-2-one] | < 10 nM
6 | CCOc1ccc(OC)cc1C1(N2CC3CN(c4ccncc4)CC3C2)C(=O)N(S(=O)(=O)c2ccc(OC)cn2)c2ccc(C#N)cc21 (racemic) [Example 68, (±)-5-Cyano-3-(2-ethoxy-5-methoxyphenyl)-1-(5-methoxypyridine-2-sulfonyl)-3-(5-pyridin-4-ylhexahydropyrrolo[3,4-c]pyrrol-2-yl)-2,3-dihydro-1H-indol-2-one] | < 10 nM
7 | CCOc1ccc(OC)cc1C1(N2CCN(C3CCNCC3)CC2)C(=O)N(S(=O)(=O)c2ccc(OC)c3cccnc23)c2ccc(C#N)cc21 (racemic) [Example 69, (±)-5-Cyano-3-(2-ethoxy-5-methoxyphenyl)-1-(5-methoxyquinoline-8-sulfonyl)-3-(4-piperidin-4-ylpiperazin-1-yl)-2,3-dihydro-1H-indol-2-one hydrochloride] | 10 to 50 nM
8 | CCOc1nc(Cl)ccc1C1(N2CCCN(c3ccncc3)CC2)C(=O)N(S(=O)(=O)c2ccc(OC)c3cccnc23)c2ccc(C#N)cc21 (racemic) [Example 71, (±)-5-Cyano-3-(6-chloro-2-ethoxypyridin-3-yl)-1-(5-methoxyquinoline-8-sulfonyl)-3-(4-pyridin-4-yl-[1,4]diazepan-1-yl)-2,3-dihydro-1H-indol-2-one] | 10 to 50 nM
9 | CCOc1ccc(OC)cc1C1(N2CCCN(c3ccnc(C)c3)CC2)C(=O)N(S(=O)(=O)c2ccc(OC)c3cccnc23)c2ccc(C#N)cc21 (racemic) [Example 73, (±)-5-Cyano-3-(2-ethoxy-5-methoxyphenyl)-1-(5-methoxyquinoline-8-sulfonyl)-3-[4-(2-methylpyridin-4-yl)-[1,4]diazepan-1-yl]-2,3-dihydro-1H-indol-2-one] | < 10 nM
10 | CCOc1ccc(OC)cc1C1(N2CC3CN(c4ccncc4)CC3C2)C(=O)N(S(=O)(=O)c2ccc(OC)c3cccnc23)c2ccc(C#N)cc21 (racemic) [Example 74, (±)-5-Cyano-3-(2-ethoxy-5-methoxyphenyl)-1-(5-methoxyquinoline-8-sulfonyl)-3-(5-pyridin-4-ylhexahydropyrrolo[3,4-c]pyrrol-2-yl)-2,3-dihydro-1H-indol-2-one] | 10 to 50 nM
11 | CCOc1ccccc1C1(N2CCCN(c3ccncc3)CC2)C(=O)N(S(=O)(=O)c2ccc(OC)cn2)c2ccc(C#N)cc21 (racemic) [Example 78, (±)-5-Cyano-3-(2-ethoxyphenyl)-1-(5-methoxypyridine-2-sulfonyl)-3-(4-pyridin-4-yl-[1,4]diazepan-1-yl)-2,3-dihydro-1H-indol-2-one] | 10 to 50 nM
12 | CCOc1ccccc1C1(N2CCN(c3ccnc(C)c3)CC2)C(=O)N(S(=O)(=O)c2ccc(OC)cn2)c2ccc(C#N)cc21 (racemic) [Example 79, (±)-5-Cyano-3-(2-ethoxyphenyl)-1-(5-methoxypyridine-2-sulfonyl)-3-[4-(2-methyl-pyridin-4-yl)piperazin-1-yl]-2,3-dihydro-1H-indol-2-one] | < 10 nM
13 | CCOc1ccc(OC)cc1C1(N2CCN(c3ccncc3)CC2)C(=O)N(S(=O)(=O)c2ccc(OC)c3cccnc23)c2ccc(C#N)cc21 (racemic) [Example 80, (±)-5-Cyano-3-(2-ethoxy-5-methoxyphenyl)-1-(5-methoxyquinoline-8-sulfonyl)-3-(4-pyridin-4-ylpiperazin-1-yl)-2,3-dihydro-1H-indol-2-one] | < 10 nM

Second part, the molecule after the results:

Row | Ki | Structure (SMILES)
14 | 10 to 50 nM | CCOc1ccc(OC)cc1C1(N2CCN(c3ccnc(C)c3)CC2)C(=O)N(S(=O)(=O)c2ccc(Cl)c3cccnc23)c2ccc(C#N)cc21 (racemic) [Example 53, (±)-5-Cyano-1-(5-chloroquinoline-8-sulfonyl)-3-(2-ethoxy-5-methoxyphenyl)-3-[4-(2-methylpyridin-4-yl)piperazin-1-yl]-2,3-dihydro-1H-indol-2-one]
15 | < 10 nM | CCOc1ccc(OC)cc1C1(N2CCN(c3ccnc(C)c3)CC2)C(=O)N(S(=O)(=O)c2cccc3cccnc23)c2ccc(C#N)cc21 (racemic) [Example 54, (±)-5-Cyano-3-(2-ethoxy-5-methoxyphenyl)-3-[4-(2-methylpyridin-4-yl)piperazin-1-yl]-1-(quinoline-8-sulfonyl)-2,3-dihydro-1H-indol-2-one]
16 | 10 to 50 nM | CCOc1ccccc1C1(N2CCN(c3ccnc(CC)c3)CC2)C(=O)N(S(=O)(=O)c2cccc3cccnc23)c2ccc(C#N)cc21 (racemic) [Example 56, (±)-5-Cyano-3-(2-ethoxyphenyl)-3-[4-(2-ethylpyridin-4-yl)piperazin-1-yl]-1-(quinoline-8-sulfonyl)-2,3-dihydro-1H-indol-2-one]
17 | < 10 nM | CCOc1ccc(OC)cc1C1(N2CCN(c3ccnc(C(C)C)c3)CC2)C(=O)N(S(=O)(=O)c2cccc3cccnc23)c2ccc(C#N)cc21 (racemic) [Example 57, (±)-5-Cyano-3-(2-ethoxy-5-methoxyphenyl)-3-[4-(2-isopropylpyridin-4-yl)piperazin-1-yl]-1-(quinoline-8-sulfonyl)-2,3-dihydro-1H-indol-2-one]
18 | < 10 nM | CCOc1ccc(OC)cc1C1(N2CCCN(c3ccnc(C)c3)CC2)C(=O)N(S(=O)(=O)c2cccc3cccnc23)c2ccc(C#N)cc21 (racemic) [Example 62, (±)-5-Cyano-3-(2-ethoxy-5-methoxyphenyl)-3-[4-(2-methylpyridin-4-yl)-[1,4]diazepan-1-yl]-1-(quinoline-8-sulfonyl)-2,3-dihydro-1H-indol-2-one]
19 | < 10 nM | CCOc1ccc(OC)cc1C1(N2CCN(c3ccnc(C4CC4)c3)CC2)C(=O)N(S(=O)(=O)c2cccc3cccnc23)c2ccc(C#N)cc21 (racemic) [Example 66, (±)-5-Cyano-3-[4-(2-cyclopropylpyridin-4-yl)piperazin-1-yl]-3-(2-ethoxy-5-methoxyphenyl)-1-(quinoline-8-sulfonyl)-2,3-dihydro-1H-indol-2-one]
20 | < 10 nM | CCOc1ccc(OC)cc1C1(N2CCN(c3ccnc(C4CC4)c3)CC2)C(=O)N(S(=O)(=O)c2ccc(OC)c3cccnc23)c2ccc(C#N)cc21 (racemic) [Example 70, (±)-5-Cyano-3-[4-(2-cyclopropylpyridin-4-yl)piperazin-1-yl]-3-(2-ethoxy-5-methoxyphenyl)-1-(5-methoxyquinoline-8-sulfonyl)-2,3-dihydro-1H-indol-2-one]
21 | 10 to 50 nM | CCOc1ccc(OC)cc1C1(N2CCN(c3ccnc(CC)c3)CC2)C(=O)N(S(=O)(=O)c2ccc(OC)c3cccnc23)c2ccc(C#N)cc21 (racemic) [Example 72, (±)-5-Cyano-3-(2-ethoxy-5-methoxyphenyl)-3-[4-(2-ethylpyridin-4-yl)piperazin-1-yl]-1-(5-methoxyquinoline-8-sulfonyl)-2,3-dihydro-1H-indol-2-one]
